Results: patent US9840498B2, “Substituted quinazolin-4-one derivatives” (NOVARTIS AG, priority 2013, dated 2017)
pIC50: −log10 of the molar value.

target: human phosphoinositide-3 kinase (PI3K) delta (Homo sapiens (Human), UniProt O00329); assay: PI3K-mediated Akt 1/2 (S473) phosphorylation in Rat-1 cells overexpressing PI3K delta; type: cell-based; conditions: cellular assay, p-AKT(Ser473), read-out: Cell PI3K delta IC50
Protocol: 2.1 Phosphoinositide-3 kinase (PI3K)-Mediated Akt 1/2 (S473) Phosphorylation in Rat-1 Cells
Rat-1 cells stably overexpressing a myristoylated form of the catalytic subunit of human phosphoinositide-3 kinase (PI3K) alpha, beta or delta were plated in 384-well plates at a density of 7500 (PI3K alpha), 6200 (PI3K beta), or 4000 (PI3K delta) cells in 30 ul complete growth medium (Dulbecco's modified Eagle's medium (DMEM high glucose) supplemented with 10% (v/v) fetal bovine serum, 1% (v/v) MEM non essential amino acids, 10 mM HEPES, 2 mM L-glutamine, 10 μg/mL puromycin and 1% (v/v) Penicillin/Streptomycin) and were incubated at […]/5% CO2/95% humidity for 24 h. Compounds were diluted in 384-well compound plates (compound master plates), to obtain 8-point serial dilutions for 40 test compounds in 90% DMSO, as well as 4 reference compounds plus 16 high controls and 16 low (inhibited) controls. Predilution plates were prepared by dispensing pipetting 250 nl of compound solutions into 384-well polypropylen plates (daugther plates), using a Hummingwell nanoliter dispenser. Compounds were prediluted by the addition of 49.75 ul complete growth medium. 10 ul of prediluted compound solution were transferred to the cell plate using a 384-well pipettor, resulting in a final DMSO concentration of 0.11%. Cells were incubated for 1 h at […]/5% CO2/95% humidity. The supernatant was removed, the cells were lysed in 20 ul of lysis buffer for AlphaScreen® SureFire® detection.
For detection of p-AKT(Ser473), the SureFire® p-Akt 1/2 (Ser473) Assay Kit (PerkinElmer, U.S.A.) was used. 5 ul of cell lysate was transferred to 384-well low volume Proxiplates for detection using a 384-well pipettor. Addition of AlphaScreen® SureFire® reagents was done according to the manufacturer's protocol. First, 5 ul of reaction buffer plus activation buffer mix containing AlphaScreen® acceptor beads was added, the plate was sealed, and incubated on a plate shaker for 2 hours at room temperature. Second, 2 ul of dilution buffer containing AlphaScreen® donor beads was added, and the plate was incubated on plate shaker as above for a further 2 hours. The plate was read on an AlphaScreen® compatible plate reader, using standard AlphaScreen® settings. Alternatively, p-AKT(Ser473) was detected with the CisBio HTRF Assay Kit: As positive control, 0.9 mM of 1-(3-(trifluoromethyl)-4-(piperazin-1-yl)phenyl)-8-(6-methoxypyridin-3-yl)-3-methyl-1H-imidazo[4,5-c]quinolin-2(3H)-one maleic acid salt in 90% (v/v) DMSO was added to the compound master plate. For compound testing, the cells were seeded at a density of 4000 (Rat-1_PI3Kdelta), 8000 (Rat-1_PI3Kalpha), or 6500 (Rat-1_PI3Kbeta) cells in 30 ul complete growth medium into 384-well plates, with a plastic surface promoting the adhesion of cells and their growth (assay plates) and were grown at 37° C./5% CO2/90% humidity for 24 h. Some 10 ul of the compound predilutions from the daughter plate were then transferred to the cells. After treatment with compound for 1 h, medium was removed and cells were lysed by the addition of 20 ul lysis buffer supplemented with blocking buffer. Detection of p-AKT(Ser473) was performed with the HTRF pAKT (Ser473) assay kit according to the manufacturer's instructions using 16 ul of cell lysate in a total detection volume of 20 ul.

Chain of human phosphoinositide-3 kinase (PI3K) delta (O00329 whole entry): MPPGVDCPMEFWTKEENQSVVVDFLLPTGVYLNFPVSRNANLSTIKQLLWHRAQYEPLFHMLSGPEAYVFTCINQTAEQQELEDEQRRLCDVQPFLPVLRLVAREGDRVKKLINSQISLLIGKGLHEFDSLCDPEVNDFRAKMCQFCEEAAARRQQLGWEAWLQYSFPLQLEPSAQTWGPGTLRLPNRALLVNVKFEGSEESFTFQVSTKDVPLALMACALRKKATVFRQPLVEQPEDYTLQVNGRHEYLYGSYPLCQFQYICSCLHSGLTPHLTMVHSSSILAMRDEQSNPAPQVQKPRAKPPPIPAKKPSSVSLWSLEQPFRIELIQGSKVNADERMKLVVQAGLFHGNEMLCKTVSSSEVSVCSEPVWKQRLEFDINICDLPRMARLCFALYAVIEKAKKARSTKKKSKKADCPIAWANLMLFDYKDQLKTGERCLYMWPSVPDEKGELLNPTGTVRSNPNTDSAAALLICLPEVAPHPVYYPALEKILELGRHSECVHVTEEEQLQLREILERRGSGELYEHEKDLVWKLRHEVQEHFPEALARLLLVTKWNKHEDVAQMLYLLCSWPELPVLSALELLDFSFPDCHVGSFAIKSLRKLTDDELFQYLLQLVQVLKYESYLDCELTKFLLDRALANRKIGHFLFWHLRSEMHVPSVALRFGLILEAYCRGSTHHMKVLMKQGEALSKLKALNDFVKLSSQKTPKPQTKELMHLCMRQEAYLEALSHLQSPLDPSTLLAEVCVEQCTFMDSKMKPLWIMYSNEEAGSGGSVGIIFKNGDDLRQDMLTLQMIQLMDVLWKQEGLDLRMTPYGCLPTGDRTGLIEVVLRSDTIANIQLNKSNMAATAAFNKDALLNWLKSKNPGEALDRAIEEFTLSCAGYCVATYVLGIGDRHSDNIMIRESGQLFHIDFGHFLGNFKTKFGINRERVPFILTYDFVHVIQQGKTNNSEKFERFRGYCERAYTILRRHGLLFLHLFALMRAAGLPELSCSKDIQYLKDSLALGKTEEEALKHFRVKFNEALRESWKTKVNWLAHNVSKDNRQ
Chain of human phosphoinositide-3 kinase (PI3K) delta (Q63787 whole entry partner): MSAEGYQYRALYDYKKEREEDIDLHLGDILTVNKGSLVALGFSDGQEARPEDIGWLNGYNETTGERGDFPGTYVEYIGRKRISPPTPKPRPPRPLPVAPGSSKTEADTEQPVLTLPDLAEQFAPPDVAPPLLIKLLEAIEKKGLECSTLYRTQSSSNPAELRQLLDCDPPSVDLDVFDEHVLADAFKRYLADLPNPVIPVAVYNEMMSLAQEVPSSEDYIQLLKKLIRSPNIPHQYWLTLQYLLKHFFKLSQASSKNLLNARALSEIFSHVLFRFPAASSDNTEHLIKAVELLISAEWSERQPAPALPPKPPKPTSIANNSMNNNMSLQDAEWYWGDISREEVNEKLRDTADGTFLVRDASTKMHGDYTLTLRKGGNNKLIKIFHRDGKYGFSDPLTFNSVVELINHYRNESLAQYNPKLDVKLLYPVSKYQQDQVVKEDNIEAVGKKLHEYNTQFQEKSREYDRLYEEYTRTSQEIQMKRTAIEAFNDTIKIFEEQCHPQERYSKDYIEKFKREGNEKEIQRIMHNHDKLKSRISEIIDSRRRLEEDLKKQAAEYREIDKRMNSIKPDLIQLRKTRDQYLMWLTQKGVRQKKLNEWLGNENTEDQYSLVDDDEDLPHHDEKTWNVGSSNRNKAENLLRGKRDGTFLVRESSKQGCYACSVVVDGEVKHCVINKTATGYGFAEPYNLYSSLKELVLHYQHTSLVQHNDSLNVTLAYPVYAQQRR

| Compound | pIC50 |
| --- | --- |
| Cc1nc(N)nc(N2C[C@@H](O)C[C@H]2c2nc3ccc(F)c(-c4cnn(C)c4)c3c(=O)n2-c2ccccc2)c1C#N [Example 1, 2-Amino-4-((2S,4S)-2-(6-fluoro-5-(1-methyl-1H-pyrazol-4-yl)-4-oxo-3-phenyl-3,4-dihydroquinazolin-2-yl)-4-hydroxypyrrolidin-1-yl)-6-methylpyrimidine-5-carbonitrile] | 8.52 |
| Cn1cc(-c2cccc3nc([C@@H]4CCCN4c4ncnc(N)c4C#N)n(-c4ccccc4)c(=O)c23)cn1 [Example 2, (S)-4-Amino-6-(2-(5-(1-methyl-1H-pyrazol-4-yl)-4-oxo-3-phenyl-3,4-dihydroquinazolin-2-yl)pyrrolidin-1-yl)pyrimidine-5-carbonitrile] | 8.52 |
| COc1ncc(-c2cccc3nc([C@@H]4CCCN4c4ncnc(N)c4C#N)n(-c4ccccc4)c(=O)c23)cn1 [Example 3, (S)-4-Amino-6-(2-(5-(2-methoxypyrimidin-5-yl)-4-oxo-3-phenyl-3,4-dihydroquinazolin-2-yl)pyrrolidin-1-yl)pyrimidine-5-carbonitrile] | 7.96 |
| COc1ncc(-c2cccc3nc([C@@H]4CCCN4c4nc(N)nc(C)c4C#N)n(-c4ccccc4)c(=O)c23)cn1 [Example 4, (S)-2-Amino-4-(2-(5-(2-methoxypyrimidin-5-yl)-4-oxo-3-phenyl-3,4-dihydroquinazolin-2-yl)pyrrolidin-1-yl)-6-methylpyrimidine-5-carbonitrile] | > 8.52 |
| Cn1cc(-c2c(F)ccc3nc([C@@H]4CCCN4c4ncnc(N)c4C#N)n(-c4ccccc4)c(=O)c23)cn1 [Example 5, (S)-4-Amino-6-(2-(6-fluoro-5-(1-methyl-1H-pyrazol-4-yl)-4-oxo-3-phenyl-3,4-dihydroquinazolin-2-yl)pyrrolidin-1-yl)pyrimidine-5-carbonitrile] | 8.15 |
| Cc1nc(N)nc(N2CCC[C@H]2c2nc3ccc(F)c(-c4cnn(C)c4)c3c(=O)n2-c2ccccc2)c1C#N [Example 6, (S)-2-Amino-4-(2-(6-fluoro-5-(1-methyl-1H-pyrazol-4-yl)-4-oxo-3-phenyl-3,4-dihydroquinazolin-2-yl)pyrrolidin-1-yl)-6-methylpyrimidine-5-carbonitrile] | 8.30 |
| COc1ncc(-c2c(F)ccc3nc([C@@H]4C[C@H](O)CN4c4nc(N)nc(C)c4C#N)n(-c4ccccc4)c(=O)c23)cn1 [Example 7, 2-Amino-4-((2S,4S)-2-(6-fluoro-5-(2-methoxypyrimidin-5-yl)-4-oxo-3-phenyl-3,4-dihydroquinazolin-2-yl)-4-hydroxypyrrolidin-1-yl)-6-methylpyrimidine-5-carbonitrile] | 8.05 |
| Cn1cc(-c2c(F)ccc3nc([C@@H]4C[C@H](O)CN4c4ncnc(N)c4C#N)n(-c4ccccc4)c(=O)c23)cn1 [Example 8, 4-Amino-6-((2S,4S)-2-(6-fluoro-5-(1-methyl-1H-pyrazol-4-yl)-4-oxo-3-phenyl-3,4-dihydroquinazolin-2-yl)-4-hydroxypyrrolidin-1-yl) pyrimidine-5-carbonitrile] | 8.22 |
| COc1ncc(-c2c(F)ccc3nc([C@@H]4C[C@H](O)CN4c4nc(N)nc(C)c4C#N)n(-c4ccccc4)c(=O)c23)s1 [Example 9, 2-Amino-4-((2S,4S)-2-(6-fluoro-5-(2-methoxythiazol-5-yl)-4-oxo-3-phenyl-3,4-dihydroquinazolin-2-yl)-4-hydroxypyrrolidin-1-yl)-6-methylpyrimidine-5-carbonitrile] | > 8.52 |
| CO[C@H]1C[C@@H](c2nc3cccc(-c4cnn(C)c4)c3c(=O)n2-c2ccccc2)N(c2nc(N)nc(C)c2C#N)C1 [Example 10, 2-Amino-4-((2S,4S)-4-methoxy-2-(5-(1-methyl-1H-pyrazol-4-yl)-4-oxo-3-phenyl-3,4-dihydroquinazolin-2-yl)pyrrolidin-1-yl)-6-methylpyrimidine-5-carbonitrile] | 7.22 |
| CO[C@H]1C[C@@H](c2nc3cccc(-c4cnn(C)c4)c3c(=O)n2-c2ccccc2)N(c2nc(N)nc3[nH]cnc23)C1 [Example 11, 2-((2S,4S)-1-(2-Amino-9H-purin-6-yl)-4-methoxypyrrolidin-2-yl)-5-(1-methyl-1H-pyrazol-4-yl)-3-phenylquinazolin-4(3H)-one] | 6.18 |
| COc1ncc(-c2cccc3nc([C@@H]4C[C@H](OC)CN4c4nc(N)nc(C)c4C#N)n(-c4ccccc4)c(=O)c23)cn1 [Example 12, 2-Amino-4-((2S,4S)-4-methoxy-2-(5-(2-methoxypyrimidin-5-yl)-4-oxo-3-phenyl-3,4-dihydroquinazolin-2-yl)pyrrolidin-1-yl)-6-methylpyrimidine-5-carbonitrile] | 7.55 |
| Cc1nc(N)nc(N2CCC[C@H]2c2nc3cccc(-c4cnn(C)c4)c3c(=O)n2-c2ccccc2)c1C#N [Example 13, (S)-2-Amino-4-methyl-6-(2-(5-(1-methyl-1H-pyrazol-4-yl)-4-oxo-3-phenyl-3,4-dihydroquinazolin-2-yl)pyrrolidin-1-yl)pyrimidine-5-carbonitrile] | 7.92 |
| Cc1ccccc1-n1c([C@@H]2CCCN2c2ncnc(N)c2C#N)nc2cccc(-c3cnn(C)c3)c2c1=O [Example 14, (S)-4-Amino-6-(2-(5-(1-methyl-1H-pyrazol-4-yl)-4-oxo-3-(otolyl)-3,4-dihydroquinazolin-2-yl)pyrrolidin-1-yl)pyrimidine-5-carbonitrile] | 8.10 |
| Cn1cnc(-c2cccc3nc([C@@H]4CCCN4c4ncnc(N)c4C#N)n(-c4ccccc4)c(=O)c23)c1 [Example 15, (S)-4-Amino-6-(2-(5-(1-methyl-1H-imidazol-4-yl)-4-oxo-3-phenyl-3,4-dihydroquinazolin-2-yl)pyrrolidin-1-yl)pyrimidine-5-carbonitrile] | 5.27 |
| Cc1nc(N)nc(N2C[C@@H](O)C[C@H]2c2nc3cccc(-c4cnn(C)c4)c3c(=O)n2-c2ccccc2)c1C#N [Example 16, 2-Amino-4-((2S,4S)-4-hydroxy-2-(5-(1-methyl-1H-pyrazol-4-yl)-4-oxo-3-phenyl-3,4-dihydroquinazolin-2-yl)pyrrolidin-1-yl)-6-methylpyrimidine-5-carbonitrile] | 8.10 |
| Cc1nc(N)nc(N2CCC[C@H]2c2nc3cccc(-c4cncnc4)c3c(=O)n2-c2ccccc2)c1C#N [Example 17, (S)-2-Amino-4-methyl-6-(2-(4-oxo-3-phenyl-5-(pyrimidin-5-yl)-3,4-dihydroquinazolin-2-yl)pyrrolidin-1-yl)pyrimidine-5-carbonitrile] | > 8.52 |
| COc1cncc(-c2cccc3nc([C@@H]4CCCN4c4nc(N)nc(C)c4C#N)n(-c4ccccc4)c(=O)c23)c1 [Example 18, (S)-2-Amino-4-(2-(5-(5-methoxypyridin-3-yl)-4-oxo-3-phenyl-3,4-dihydroquinazolin-2-yl)pyrrolidin-1-yl)-6-methylpyrimidine-5-carbonitrile] | > 8.52 |
| Cc1ncc(-c2cccc3nc([C@@H]4CCCN4c4nc(N)nc(C)c4C#N)n(-c4ccccc4)c(=O)c23)cn1 [Example 19, (S)-2-Amino-4-methyl-6-(2-(5-(2-methylpyrimidin-5-yl)-4-oxo-3-phenyl-3,4-dihydroquinazolin-2-yl)pyrrolidin-1-yl)pyrimidine-5-carbonitrile] | > 8.52 |
| Cc1nc(N)nc(N2CCC[C@H]2c2nc3cccc(-c4cccnc4)c3c(=O)n2-c2ccccc2)c1C#N [Example 20, (S)-2-Amino-4-methyl-6-(2-(4-oxo-3-phenyl-5-(pyridin-3-yl)-3,4-dihydroquinazolin-2-yl)pyrrolidin-1-yl)pyrimidine-5-carbonitrile] | > 8.52 |
| COc1ccc(-c2cccc3nc([C@@H]4CCCN4c4nc(N)nc(C)c4C#N)n(-c4ccccc4)c(=O)c23)cn1 [Example 21, (S)-2-Amino-4-(2-(5-(6-methoxypyridin-3-yl)-4-oxo-3-phenyl-3,4-dihydroquinazolin-2-yl)pyrrolidin-1-yl)-6-methylpyrimidine-5-carbonitrile] | 7.89 |
